SMILES strings stand for the structures.

The source of these data is patent US20230104477A1, “USE OF DEHYDROASCORBIC ACID AGAINST NEMATODE INFECTION IN PLANTS” (Universiteit Gent, priority 2019, published 2023).

One assay concerns sugar beet plants. Put plainly: Root and shoot growth in uninfected sugar beet plants after foliar spray. The class given is in vivo, Beta vulgaris cv. Amarok. Here is the method:
Sugar beet—seeds of cv. Amarok were germinated on moist tissue for 4-5 days at 25° C. For longer experiments seedlings were transplanted to polyvinyl-chloride (PVC) tubes containing fine soil particles. All experiments were conducted in a plant growth room at 25° C., with a 16/8 h day/night regime. The plants were fertilized by supplying Hoagland solution as a source of nutrients 3 times a week.
(§1) Reduced Ascorbic acid (AA, 20 mM), dehydroascorbic acid (DHA, 20 mM), ascorbate oxidase (AO, 20 U/ml), methyl jasmonate (MeJA, 100 μM), aminooxyacetic acid (AoA, 12.5 mM), diethyldithiocarbamic acid (DIECA, 100 μM) and ethephon (100 μM) were purchased from Sigma and dissolved in water (except MeJA that was first dissolved in a drop of ETOH) to attain the indicated concentration.
(§2) For foliar application, all chemicals were dissolved in water and 0.02% (v/v) of Tween20 as a surfactant was added prior to spraying on aerial portions of the rice plants. Control plants were sprayed with distilled water containing 0.02% Tween20. Eight plants per treatment were sprayed until run-off with 6.5 mL of solution (at 24 h prior to nematode inoculation, in cases where infected plants were used). The substrate was covered to avoid direct contact with the roots and/or nematodes.

A further assay has as its system rice plants. Kind of assay: Root growth in rice after foliar spray, uninfected conditions. Particulars: 14-days old rice, foliar spray 20 mM, 12 DAS, vs water control. The class given is in vivo, Oryza sativa cv. Nipponbare. On the procedure:
Rice—Seeds of wild-type rice Oryza sativa cv. Nipponbare were obtained from USDA (GSOR-100). Seeds were germinated on wet filter paper for 4-5 days at 30° C. and seedlings were then transferred to SAP-substrate (Sand mixed with Absorbent Polymer AquaPerla®, DCM, Belgium) and further grown at 28° C., under a light regime of (day/night) 12/12. Hoagland solution was given as a source of nutrients 3 times a week.
as §1, §2

For assay [1], the system named is Phenylalanine ammonia lyase (PAL). Kind of assay: PAL activity measurements in treated rice plants. The class given is in vivo. Particulars: 20 mM DHA foliar spray; for PAL-activity in galls in comparison with uninfected root tips: M. graminicola infected. Here is the method:
PAL activity measurements—14 days old rice plants were foliar sprayed with 20 mM DHA and 1 day later, plants were inoculated with Meloidogyne graminicola nematodes (Mg+) or mock inoculated (Mg−). Three or seven days after inoculation, samples were collected. Both galls and systemic tissue (shoots) were collected. Samples were flash-frozen and ground under liquid nitrogen. Per sample, 100 mg of material was used to execute PAL-activity measurement according to Camacho-Cristobal et al. (2002). PAL was assayed by measuring the formation of trans-cinnamic acid at 290 nm. Samples were dissolved in 800 μl of 50 mM sodium phosphate as assay buffer containing 2% (w/v) poly-vinylpolypyrrolidone (PVPP), 2 mM EDTA, 18 mM-mercaptoetanol and 0.1% (v/v) Triton X-100. The homogenate was centrifuged at 8000 rpm, 4° C. for 10 min. In different 2 ml tubes, 135 μl of reaction buffer, 50 μl of 5 mM of L-phenlyalanine, and 20 μl of supernatant were mixed and absorbance at 290 nm was measured before incubation at 40° C. for 30 minutes. Then, 10 μl of hydrochloric acid was added and measurement was again done at the same wavelength. The assay was done with 4 biological replicates, which each consisted of pooled material of 4 plants.

The mark [2] stands for this setting: two-week old sugar beet, foliar spray, seven days later, effect not statistically significant.

For the molecule `O=C1O[C@H]([C@@H](O)CO)C(=O)C1=O` [DHA, (5R)-5-[(1S)-1,2-dihydroxyethyl]furan-2,3,4(5H)-trione], the “general appearance of plants” value in the assay on sugar beet plants (sugar beet, foliar spray DHA 20 mM, throughout the experiment) is “looked more vigorous”. Also, the root length entry in the assay with sugar beet plants (two-week old sugar beet, foliar spray (DHA 20 mM, AO 20 U/mL), seven days later, vs water control) is recorded as “significantly longer roots”; with rice plants, “significantly longer roots”. Further, in the assay on sugar beet plants (setting [2]), the fresh root weight entry is recorded as “positively affected”. Moreover, the shoot length entry in the assay on sugar beet plants (setting [2]) is on record as “positively affected”. Besides, the “PAL-activity in systemic shoot tissues of infected versus uninfected plants” value in assay [1] (3 dpi) and in assay [1] (7 dpi) was “strongly enhanced” throughout. Moreover, the “PAL-activity in galls in comparison with uninfected root tips” value in assay [1] (3 dpi) and in assay [1] (7 dpi) was “strongly enhanced” throughout.
